Laboratory results reported in US9474780B2, “GIP and GLP-1 co-agonist compounds” (Eli Lilly and Company, priority 2015, dated 2016).

Tests used:
[1] = Pharmacokinetics in cynomolgus monkeys; assay type: in vivo; conditions: cynomolgus monkey, plasma
Protocol: The compounds are administered by a single intravenous or subcutaneous dose (0.2 mg/kg) in 20 mM citrate buffer (pH 7.0) at a volume of 0.21 ml/kg. Blood is collected from each animal at 2, 4, 8, 12, 24, 48, 72, 96, 120, 144, 168, 204, 240, and 312 hours post-dosage. The plasma concentrations of compounds of the present invention are determined by a LC/MS method. Briefly, a compound of the present invention is extracted from 100% Monkey plasma sample (50 μl) diluted with 1×PBS (150 μl) and mixed with N-butanol (400 μl). Three distinct liquid layers are formed with the compound located in the top layer. A volume of 200 μl is transferred to a v-bottom 96-well plate, dried down using heated Nitrogen gas and reconstituted with 100 μl of 30% acetonitrile/0.1% formic acid. 20 μl of the reconstituted sample is injected onto a Supelco Analytical Discovery bio wide C5 3 μm column. The column effluent is directed into a Thermo Q-Exactive mass spectrometer for detection and quantitation.

[2] = Plasma corticosterone in Sprague Dawley rats; assay type: in vivo, rat; conditions: for Corticosterone, Mean: 16 hours
Protocol: Plasma corticosterone levels are evaluated using Sprague Dawley Rats (Harlan, Indianapolis), weighing approximately 220 g and acclimated for at least 72 hours before handling. The rats are then dosed with vehicle (20 mM citrate buffer, pH 7), semaglutide (10 nmol/kg), or compounds of the present invention at 3, 10 or 30 nmol/kg s.c. with 8 rats per dose group. The rats are decapitated 16 hours later. Blood is collected into EDTA tubes on ice, then centrifuged 5 minutes at 8000 RPM in a Eppendorf 5402 tabletop centrifuge. Plasma is stored at −80° C. until analysis.
For corticosterone analysis, corticosterone standards (Sigma, 27840) are prepared by serial dilutions in HPLC-grade methanol, H2O and the addition of 5% charcoal stripped rat serum (Bioreclamation, RATSRM-STRPD-HEV). Rat plasma samples are diluted with PBS, precipitated with cold methanol, incubated for 20 minutes at −20° C., and then centrifuged at 14,000 RPM with an Eppendorf 5417R at 4° C. Supernatants are extracted, evaporated under a stream of N2 gas, and reconstituted in MeOH/H2O (1:1) solution.

[3] = target: Human GCGR (Homo sapiens, UniProt P47871); assay: Functional hGCGR cAMP assay in HEK-293 clonal cells
[4] = target: T1, human GIP-R (Homo sapiens, UniProt P48546); assay: Functional hGIP-R cAMP assay in HEK-293 clonal cells; conditions: HEK293, read-out: Human GIP-R Emax
T1 sequence (P48546 22-466): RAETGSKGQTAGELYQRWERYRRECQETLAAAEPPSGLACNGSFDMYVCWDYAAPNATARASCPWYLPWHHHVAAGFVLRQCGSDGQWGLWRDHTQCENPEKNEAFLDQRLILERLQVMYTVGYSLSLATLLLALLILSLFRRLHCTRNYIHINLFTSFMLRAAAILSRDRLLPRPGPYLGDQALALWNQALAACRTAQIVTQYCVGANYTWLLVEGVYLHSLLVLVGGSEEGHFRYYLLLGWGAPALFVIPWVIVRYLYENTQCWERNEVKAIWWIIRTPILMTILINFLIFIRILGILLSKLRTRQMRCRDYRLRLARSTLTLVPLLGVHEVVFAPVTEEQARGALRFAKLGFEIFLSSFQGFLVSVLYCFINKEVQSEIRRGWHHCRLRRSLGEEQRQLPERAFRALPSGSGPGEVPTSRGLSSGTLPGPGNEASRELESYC

[5] = target: T2, human GLP-1R (Homo sapiens, UniProt P43220); assay: Functional hGLP-1R cAMP assay in HEK-293 clonal cells; assay type: cell-based; conditions: HEK293; percent of maximal response of hGLP-1(7-36)NH2
T2 construct: expressed in transfected cells; host or cells: 293HEK, Hygromycin-selected; crude plasma membranes
Protocol: After an incubation of 60 minutes at room temperature, the resulting increase in intracellular cAMP is quantitatively determined using the CisBio cAMP Dynamic 2 HTRF Assay Kit (Bedford, Mass.). Briefly, cAMP levels within the cell are detected by adding the cAMP-d2 conjugate in cell lysis buffer (20 μl) followed by the antibody anti-cAMP-Eu^3+-Cryptate, also in cell lysis buffer (20 μl). The resulting competitive assay is incubated for at least 60 minutes at room temperature, then detected using a PerkinElmer Envision® instrument with excitation at 320 nm and emission at 665 nm and 620 nm Envision units (emission at 665 nm/620 nm*10,000) are inversely proportional to the amount of cAMP present and are converted to nM cAMP per well using a cAMP standard curve. […] A relative EC50 value and percent top (Emax) is derived by non-linear regression analysis using the percent maximal response versus the concentration of the compound of the present invention, fitted to a four-parameter logistic equation.

[6] = test system: mouse islets; assay: Mouse islet insulin secretion; assay type: cell-based; conditions: read-out: Mouse islet insulin secretion Mean ED50
Protocol: To assess action of compounds of the present invention in a system representing physiological GLP-1R and GIP-R expression levels insulin secretion, compounds are tested for effects on insulin secretion from wild-type rodent islets.
After common bile duct cannulation in male C57B1/6 mice (22-26 g) or male Sprague-Dawley rats (approx. 250 g), the pancreas is distended with Hank's buffer (3 ml for mice or 10 ml for rats, containing 2% BSA and 0.75 mg/ml Clzyme collagenase (VitaCyte). Subsequently, tissues are digested in Hank's buffer at 37° C. for 11-13 minutes (mice) or 14-16 minutes for rat pancreata. Purified islets (Histopaque-1100 gradient [Sigma-Aldrich], […] at 750× gravity) are cultured overnight in RPMI-1640 medium (Invitrogen) containing 10% FBS, 100 U/ml penicillin and 100 μg/ml streptomycin, and preconditioned by starvation in Earle's Balanced Salt Solution (EBSS) supplemented with 0.1% BSA and 2.8 mM glucose. Subsequently, islets are incubated in EBSS (Invitrogen) supplemented with 0.1% BSA, 2.8-11.2 mM glucose and increasing levels of compound (6 batches of 4 islets/condition). GLP-1(7-36)amide (30 nM) is used as a positive control. Insulin is measured over 90 minutes in supernatant using the MSD Insulin Assay (Meso Scale, Gaithersburg, Md.).

T2 sequence (P43220 24-463): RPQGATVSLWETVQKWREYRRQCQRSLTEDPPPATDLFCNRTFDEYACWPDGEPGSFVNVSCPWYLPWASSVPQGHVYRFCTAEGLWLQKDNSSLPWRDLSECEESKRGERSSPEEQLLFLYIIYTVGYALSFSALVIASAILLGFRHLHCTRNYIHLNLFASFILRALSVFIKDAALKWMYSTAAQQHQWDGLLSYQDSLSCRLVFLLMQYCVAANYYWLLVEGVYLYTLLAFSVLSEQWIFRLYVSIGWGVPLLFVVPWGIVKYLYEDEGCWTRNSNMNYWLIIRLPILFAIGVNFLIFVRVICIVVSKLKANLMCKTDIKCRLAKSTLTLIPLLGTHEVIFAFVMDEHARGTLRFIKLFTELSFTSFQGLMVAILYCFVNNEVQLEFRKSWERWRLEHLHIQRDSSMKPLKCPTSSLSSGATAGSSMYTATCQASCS
Chain of Human GCGR (P47871 26-477): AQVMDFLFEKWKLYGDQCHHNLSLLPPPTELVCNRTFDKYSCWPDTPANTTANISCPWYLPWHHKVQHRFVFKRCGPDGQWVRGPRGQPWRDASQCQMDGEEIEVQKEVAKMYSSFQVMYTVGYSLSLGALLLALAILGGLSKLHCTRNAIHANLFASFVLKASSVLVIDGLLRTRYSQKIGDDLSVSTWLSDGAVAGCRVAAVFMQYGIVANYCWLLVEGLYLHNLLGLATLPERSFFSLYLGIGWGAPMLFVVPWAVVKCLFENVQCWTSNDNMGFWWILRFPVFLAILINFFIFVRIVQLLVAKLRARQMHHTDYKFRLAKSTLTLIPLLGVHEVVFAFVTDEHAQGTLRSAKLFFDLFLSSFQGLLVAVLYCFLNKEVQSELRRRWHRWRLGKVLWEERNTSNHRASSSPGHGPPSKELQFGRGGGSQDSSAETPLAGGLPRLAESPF

| SMILES | Tmax ([1]; sc, single subcutaneous dose 0.2 mg/kg, read-out: time of mean maximum plasma concentration) [h] | clearance ([1]; 0.2 mg/kg single dose) [mL/day/kg] | half-life ([1]; 0.2 mg/kg single dose, read-out: mean half-life (converted)) [h] | bioavailability ([1]; subcutaneous vs intravenous, 0.2 mg/kg) [%] | Corticosterone, Mean ([2]; 3 nmol/kg s.c.) [ng/mL] | Corticosterone, Mean ([2]; 10 nmol/kg s.c.) [ng/mL] | Corticosterone, Mean ([2]; 30 nmol/kg s.c.) [ng/mL] | increase in plasma corticosterone levels over control ([2]; Example 1 at 3, 10, 30 nmol/kg, semaglutide 10 nmol/kg) | EC50 [3] [nM] | Emax [4] [%] | Emax [5] [%] | EC50 [6] [nM] |
| --- | --- | --- | --- | --- | --- | --- | --- | --- | --- | --- | --- | --- |
| CC[C@H](C)[C@H](NC(=O)[C@H](CC(C)C)NC(=O)[C@H](Cc1c[nH]c2ccccc12)NC(=O)[C@H](CCC(N)=O)NC(=O)[C@@H](NC(=O)[C@H](Cc1ccccc1)NC(=O)[C@H](C)NC(=O)[C@H](CCCCNC(=O)COCCOCCNC(=O)COCCOCCNC(=O)CC[C@H](NC(=O)CCCCCCCCCCCCCCCCCCC(=O)O)C(=O)O)NC(=O)[C@H](CCC(N)=O)NC(=O)[C@H](C)NC(=O)[C@@H](NC(=O)[C@H](CCCCN)NC(=O)[C@H](CC(=O)O)NC(=O)[C@H](CC(C)C)NC(=O)C(C)(C)NC(=O)[C@@H](NC(=O)[C@H](CO)NC(=O)[C@H](Cc1ccc(O)cc1)NC(=O)[C@H](CC(=O)O)NC(=O)[C@H](CO)NC(=O)[C@@H](NC(=O)[C@H](Cc1ccccc1)NC(=O)[C@@H](NC(=O)CNC(=O)[C@H](CCC(=O)O)NC(=O)C(C)(C)NC(=O)[C@@H](N)Cc1ccc(O)cc1)[C@@H](C)O)[C@@H](C)O)[C@@H](C)CC)[C@@H](C)CC)C(C)C)C(=O)N[C@@H](C)C(=O)NCC(=O)NCC(=O)N1CCC[C@H]1C(=O)N[C@@H](CO)C(=O)N[C@@H](CO)C(=O)NCC(=O)N[C@@H](C)C(=O)N1CCC[C@H]1C(=O)N1CCC[C@H]1C(=O)N1CCC[C@H]1C(=O)N[C@@H](CO)C(N)=O [Example 1] | ~8 | 17.5 | 55 | ~83 | 52.21 | 32.46 | 31.35 | no increase in plasma corticosterone levels | > 1000 | 97.9 ± 3 | 85.2 ± 4.4 | – |
| CC[C@H](C)[C@H](NC(=O)[C@H](CC(C)C)NC(=O)[C@H](Cc1c[nH]c2ccccc12)NC(=O)[C@H](CCC(N)=O)NC(=O)[C@@H](NC(=O)[C@H](Cc1ccccc1)NC(=O)[C@H](C)NC(=O)[C@H](CCCCNC(=O)COCCOCCNC(=O)COCCOCCNC(=O)CC[C@H](NC(=O)CC[C@H](NC(=O)CCCCCCCCCCCCCCCCC(=O)O)C(=O)O)C(=O)O)NC(=O)[C@H](CCC(N)=O)NC(=O)[C@H](C)NC(=O)[C@@H](NC(=O)[C@H](CCCCN)NC(=O)[C@H](CC(=O)O)NC(=O)[C@H](CC(C)C)NC(=O)C(C)(C)NC(=O)[C@@H](NC(=O)[C@H](CO)NC(=O)[C@H](Cc1ccc(O)cc1)NC(=O)[C@H](CC(=O)O)NC(=O)[C@H](CO)NC(=O)[C@@H](NC(=O)[C@H](Cc1ccccc1)NC(=O)[C@@H](NC(=O)CNC(=O)[C@H](CCC(=O)O)NC(=O)C(C)(C)NC(=O)[C@@H](N)Cc1ccc(O)cc1)[C@@H](C)O)[C@@H](C)O)[C@@H](C)CC)[C@@H](C)CC)C(C)C)C(=O)N[C@@H](C)C(=O)NCC(=O)NCC(=O)N1CCC[C@H]1C(=O)N[C@@H](CO)C(=O)N[C@@H](CO)C(=O)NCC(=O)N[C@@H](C)C(=O)N1CCC[C@H]1C(=O)N1CCC[C@H]1C(=O)N1CCC[C@H]1C(=O)N[C@@H](CO)C(N)=O [Example 4] | – | – | – | – | – | – | – | – | > 1000 | – | 100 ± 5 | 3.5 |
